Experimental data taken from patent publication US20250092065A1, “2-(INDAZOL-5-YL)-6-(PIPERIDIN-4-YL)-1,7-NAPHTHYRIDINE DERIVATIVES AND RELATED COMPOUNDS AS MODULATORS FOR SPLICING NUCLEIC ACIDS AND FOR THE TREATMENT OF PROLIFERATIVE DISEASES” (REMIX THERAPEUTICS INC., priority 2022, published 2025).
Structures can show the parent of a compound that is named as a salt. Where two headings read alike, the source gives them in different places.

Tests used:
MYB mRNA = assay: RT-qPCR splicing assay, MYB mRNA canonical (CJ) and alternative (AJ) junction; format: cell-based, human; details: Homo sapiens
Summary of the method: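 Splice switching quantified in compound-treated A673/K562 cells after 24 h exposure (top dose 10 uM, 3-fold steps, ≤0.25% DMSO), using CJ and AJ qPCR assays run at least in duplicate. RQ derived by 2^(−ΔΔCt), then percentage response.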

Target C = assay: RT-qPCR canonical junction panel assay, Target C mRNA; format: cell-based; details: Table 4, read-out: Target C IC50 (decrease in CJ mRNA levels)
Summary of the method: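 A673 or K562 cells treated with compound; CJ mRNA quantified by junction-spanning RT-qPCR probe after cDNA synthesis, normalised to GAPDH, GUSB or PPIA and DMSO (2^−ΔΔCt), scaled to set ΔCt assay window; IC50 from 4-parameter fit of CJ decrease.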

[1] = RT-qPCR, MYB alternative junction mRNA increase, read-out: MYB AJ (increase in alternative junction mRNA, AC50)
[2] = RT-qPCR, MYB canonical junction mRNA decrease, read-out: MYB CJ (decrease in canonical junction mRNA, IC50)
[3] = canonical junction qPCR panel, Table 4, read-out: MYB IC50 (decrease in CJ mRNA levels)
[4] = MYB alternative junction mRNA, RT-qPCR, read-out: MYB AJ (increase in AJ mRNA, AC50)
[5] = MYB canonical junction mRNA, RT-qPCR, read-out: MYB CJ (decrease in CJ mRNA levels, IC50)

Row | Compound | IC50 (MYB mRNA; [2]) | IC50 (MYB mRNA; [3]) | IC50 (Target C) | IC50 (MYB mRNA; [5]) | AC50 (MYB mRNA; [1]) | AC50 (MYB mRNA; [4])
1 | Cn1cc2cc(-c3cc4ccc(C5CCNCC5)nc4cn3)c(O)cc2n1 [Compound 104] |  | 1 to 10 µM | 1 to 10 µM | 1 to 10 µM |  | 1 to 10 µM
2 | Cc1cn2nc(-c3ccc4nc(N5CCC(NC(C)(C)C)C5)ccc4n3)cc(C)c2n1 (stereo not drawn) [Compound 186] |  | 0.1 to 1 µM | < 0.1 µM | 0.1 to 1 µM |  | < 0.1 µM
3 | CN(C)C1CCN(c2ccc3nc(-c4cc5cn(C)nc5c(F)c4O)ncc3c2)CC1 [Compound 757, 5-{6-[4-(dimethylamino)piperidin-1-yl]quinazolin-2-yl}-7-fluoro-2-methylindazol-6-ol] | < 0.1 µM | < 0.1 µM | 1 to 10 µM |  | 0.1 to 1 µM | 
4 | C[C@@H]1CN(c2cc(F)c3nc(-c4cc(F)c5nn(C)cc5c4)ccc3c2)C[C@H](C)N1 [Compound 758, 6-[(3R,5S)-3,5-dimethylpiperazin-1-yl]-8-fluoro-2-(7-fluoro-2-methylindazol-5-yl)quinoline] | 0.1 to 1 µM | 0.1 to 1 µM | 1 to 10 µM |  | 0.1 to 1 µM | 
5 | C[C@@H]1CN(c2cc(F)c3nc(-c4cc5cn(C)nc5c(F)c4O)ccc3c2)C[C@H](C)N1 [Compound 763, 5-{6-[(3R,5S)-3,5-dimethylpiperazin-1-yl]-8-fluoroquinolin-2-yl}-7-fluoro-2-methylindazol-6-ol hydrochloride] | < 0.1 µM | < 0.1 µM | 1 to 10 µM |  | < 0.1 µM | 
6 | C[C@@H]1CN(c2cc(F)c3nc(-c4cc5cn(C)nc5cc4O)ccc3c2)C[C@H](C)N1 [Compound 768, 5-{6-[(3R,5S)-3,5-dimethylpiperazin-1-yl]-8-fluoroquinolin-2-yl}-2-methylindazol-6-ol hydrochloride] | 0.1 to 1 µM | 0.1 to 1 µM | 1 to 10 µM |  | 0.1 to 1 µM | 
7 | Cc1cn2cc(-c3ncc4cc(N5C[C@@H](C)N[C@@H](C)C5)ccc4n3)cc(F)c2n1 [Compound 773, 6-[(3R,5S)-3,5-dimethylpiperazin-1-yl]-2-{8-fluoro-2-methylimidazo[1,2-a]pyridin-6-yl}quinazoline] | < 0.1 µM | < 0.1 µM | 1 to 10 µM |  | < 0.1 µM | 
8 | Cc1cn2cc(-c3nc(C(=O)NC4CCC4)c4cc(N5C[C@@H](C)N[C@@H](C)C5)ccc4n3)cc(F)c2n1 [Compound 779, N-cyclobutyl-6-[(3R,5S)-3,5-dimethylpiperazin-1-yl]-2-{8-fluoro-2-methylimidazo[1,2-a]pyridin-6-yl}quinazoline-4-carboxamide] | < 0.1 µM | < 0.1 µM | 1 to 10 µM |  | < 0.1 µM | 
9 | Cc1c(O)c(-c2nc(C(N)=O)c3cc(N4C[C@H](C)N[C@@H](C)C4)ccc3n2)cc2cn(C)nc12 [Compound 796] | < 0.1 µM | < 0.1 µM | > 10 µM |  | < 0.1 µM | 
10 | C[C@H]1CN(c2ccc3nc(-c4cc5cn(C)nc5cc4O)nc(C(N)=O)c3c2)C[C@H](C)N1 [Compound 797] | < 0.1 µM | < 0.1 µM | > 10 µM |  | < 0.1 µM | 
11 | Cc1cn2cc(-c3ncc4cc(N5C[C@H](C)N[C@@H](C)C5)ccc4n3)cc(F)c2n1 [Compound 803, 6-[(3S,5S)-3,5-dimethylpiperazin-1-yl]-2-{8-fluoro-2-methylimidazo[1,2-a]pyridin-6-yl}quinazoline] | < 0.1 µM | < 0.1 µM | 0.1 to 1 µM |  | < 0.1 µM | 
12 | Cc1c(O)c(-c2ccc3cc(N4CCNC5(CC5)C4)cc(F)c3n2)cc2cn(C)nc12 [Compound 805, 5-(6-{4,7-diazaspiro[2.5]octan-7-yl}-8-fluoroquinolin-2-yl)-2,7-dimethylindazol-6-ol] | < 0.1 µM | < 0.1 µM | 0.1 to 1 µM |  | < 0.1 µM | 

Now from value to molecule, other results behind:

Row | IC50 (MYB mRNA; [2]) | IC50 (MYB mRNA; [3]) | IC50 (Target C) | IC50 (MYB mRNA; [5]) | Compound | AC50 (MYB mRNA; [1]) | AC50 (MYB mRNA; [4])
13 | < 0.1 µM | < 0.1 µM | 0.1 to 1 µM |  | C[C@H]1CN(c2cc(F)c3nc(-c4cc(F)c5nn(C)cc5c4)ccc3c2)C[C@H](C)N1 (single isomer, unassigned) [Compound 760] | 0.1 to 1 µM | 
14 | < 0.1 µM | < 0.1 µM | 0.1 to 1 µM |  | C[C@H]1CN(c2cc(F)c3nc(-c4cc5cn(C)nc5cc4O)ccc3c2)C[C@H](C)N1 (single isomer, unassigned) [Compound 770] | < 0.1 µM | 
15 | < 0.1 µM | < 0.1 µM | 1 to 10 µM |  | Cc1cn2nc(-c3ccc4cc(N5C[C@H](C)N[C@@H](C)C5)cc(F)c4n3)cc(C)c2n1 (single isomer, unassigned) [Compound 799] | 0.1 to 1 µM | 
16 | < 0.1 µM | < 0.1 µM | 0.1 to 1 µM |  | Cc1c(O)c(-c2ccc3cc(N4C[C@H](C)N[C@@H](C)C4)cc(F)c3n2)cc2cn(C)nc12 (single isomer, unassigned) [Compound 800, 2,2,2-trifluoroacetate] | < 0.1 µM | 
17 | < 0.1 µM | < 0.1 µM | > 10 µM |  | Cc1nc(-c2cc3cn(C)nc3cc2O)nc2ccc(N3C[C@H](C)N[C@@H](C)C3)cc12 (single isomer, unassigned) [Compound 806] | 0.1 to 1 µM | 
18 | < 0.1 µM | < 0.1 µM | > 10 µM |  | Cc1nc(-c2cc3cn(C)nc3c(C)c2O)nc2ccc(N3C[C@H](C)N[C@@H](C)C3)cc12 (single isomer, unassigned) [Compound 807] | < 0.1 µM | 
19 |  | < 0.1 µM | 0.1 to 1 µM | < 0.1 µM | Cn1cc2cc(-c3ccc4nc(N5CC[C@H](NC6CCC6)C5)ccc4n3)c(O)cc2n1 [Compound 156] |  | < 0.1 µM
20 |  | < 0.1 µM | 0.1 to 1 µM | < 0.1 µM | CC(C)N[C@H]1CCN(c2ccc3nc(-c4cc5cn(C)nc5cc4O)ccc3n2)C1 [Compound 171] |  | < 0.1 µM
21 |  | < 0.1 µM | 0.1 to 1 µM | < 0.1 µM | Cn1cc2cc(-c3ccc4nc(N5CC[C@H](NCC6CC6)C5)ccc4n3)c(O)cc2n1 [Compound 194] |  | < 0.1 µM
